From the NIST ThermoML archive (doi:10.1021/je400630f)

Test: xn = mol fraction of the nth substance listed
Details: 100 kPa, Liquid; for viscosity: Capillary tube (Ostwald / Ubbelohde) method

CCCCCCCCCO [nonan-1-ol] + CCO
Details	mass density, 283.15 K [kg/m3]	mass density, 293.15 K [kg/m3]	mass density, 298.15 K [kg/m3]	mass density, 303.15 K [kg/m3]	mass density, 313.15 K [kg/m3]	viscosity, 283.15 K [mPa·s]	viscosity, 293.15 K [mPa·s]	viscosity, 298.15 K [mPa·s]	viscosity, 303.15 K [mPa·s]	viscosity, 313.15 K [mPa·s]
x2 = 0	835	828.1	824.7	821.3	814.3	17.44	11.63	9.519	7.806	5.668
x2 = 0.0999	834.1	827.2	823.8	820.3	813.3	14.81	10.17	8.427	6.931	5.108
x2 = 0.2	832	825.1	821.6	818.1	811	12.63	8.712	7.371	6.145	4.534
x2 = 0.3002	830	823.2	819.7	816.1	809	10.68	7.431	6.388	5.34	3.966
x2 = 0.4001	827.9	820.9	817.3	813.8	806.5	8.855	6.275	5.421	4.577	3.443
x2 = 0.4999	825.3	818.2	814.5	810.9	803.6	7.184	5.234	4.529	3.845	2.946
x2 = 0.6001	822.9	815.1	811.4	807.7	800.8	5.578	4.243	3.712	3.169	2.485
x2 = 0.6997	818.3	810.8	807	803.3	795.6	4.208	3.319	2.936	2.536	2.042
x2 = 0.7975	815	807.1	803.3	799.4	791.1	3.169	2.478	2.281	1.961	1.624
x2 = 0.8998	809.5	799.4	795.3	791.3	783	2.22	1.696	1.658	1.415	1.214

CCCCCCCCO [octan-1-ol] + CCO
Details	mass density, 283.15 K [kg/m3]	mass density, 293.15 K [kg/m3]	mass density, 298.15 K [kg/m3]	mass density, 303.15 K [kg/m3]	mass density, 313.15 K [kg/m3]	viscosity, 283.15 K [mPa·s]	viscosity, 293.15 K [mPa·s]	viscosity, 298.15 K [mPa·s]	viscosity, 303.15 K [mPa·s]	viscosity, 313.15 K [mPa·s]
x2 = 0	832.1	825.2	821.9	818.4	811.4	13.49	9.016	7.39	6.306	4.587
x2 = 0.1001	831.8	824.1	821.3	817.8	810.7	11.57	7.998	6.619	5.68	4.167
x2 = 0.2001	829.4	822.4	818.9	815.4	808.3	9.981	6.997	5.812	5.045	3.739
x2 = 0.3003	827.3	820.6	817	813.4	806.2	8.404	6.004	5.076	4.422	3.316
x2 = 0.3999	825.4	818.2	814.7	811.5	803.7	6.907	5.04	4.357	3.732	2.903
x2 = 0.5004	822.6	815.3	811.7	808.1	800.7	5.63	4.177	3.665	3.22	2.501
x2 = 0.6006	820.1	812.7	809	805.2	797.7	4.488	3.427	3.047	2.677	2.117
x2 = 0.7	816.8	809.3	805.4	801.7	793.9	3.543	2.711	2.445	2.178	1.771
x2 = 0.7999	811.7	803.9	800	796.1	788.1	2.714	2.146	1.958	1.712	1.4
x2 = 0.8998	–	–	–	–	–	2.003	1.593	1.474	1.328	1.112
x2 = 0.9001	805	796.8	792.7	788.6	780.4	–	–	–	–	–

CCCCO [butan-1-ol] + CCO
Details	mass density, 283.15 K [kg/m3]	mass density, 293.15 K [kg/m3]	mass density, 298.15 K [kg/m3]	mass density, 303.15 K [kg/m3]	mass density, 313.15 K [kg/m3]	viscosity, 283.15 K [mPa·s]	viscosity, 293.15 K [mPa·s]	viscosity, 298.15 K [mPa·s]	viscosity, 303.15 K [mPa·s]	viscosity, 313.15 K [mPa·s]
x2 = 0	817.3	809.6	805.8	802.1	794.3	3.822	2.859	2.558	2.236	1.736
x2 = 0.1002	815.9	808.3	804.5	800.6	792.8	3.528	2.645	2.371	2.091	1.631
x2 = 0.2008	814.5	806.8	803	799.1	791.2	3.198	2.44	2.192	1.938	1.526
x2 = 0.3018	813.3	805.6	801.7	797.8	789.8	2.887	2.235	2.017	1.788	1.42
x2 = 0.4006	811.7	803.8	799.9	795.9	787.9	2.63	2.048	1.853	1.636	1.321
x2 = 0.5002	809.6	801.6	797.7	793.7	785.6	2.404	1.879	1.703	1.506	1.225
x2 = 0.6008	807.7	799.8	795.8	791.8	783.6	2.196	1.715	1.554	1.379	1.135
x2 = 0.7002	805.6	797.5	793.4	789.3	781	1.993	1.567	1.42	1.274	1.058
x2 = 0.7991	803.3	795.1	790.9	786.8	778.3	1.811	1.421	1.299	1.175	0.985
x2 = 0.8997	800.8	792.4	788.2	784.1	776	1.644	1.299	1.188	1.074	0.91
